Laboratory results reported in ChEMBL document CHEMBL1201862, “PubChem BioAssay data set” (2004).
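96-well plates; 48 h exposure; 5 concentrations. Endpoints by linear interpolation between flanking doses. Not reached: highest tested concentration assigned. GI50 is the concentration that inhibits growth by half.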 Active and inactive are the calls of the source. Rule as the data show it: active = GI50 up to about 1.1 µM and inactive = higher.

How the values were obtained:
Experiment in all cases: NCI anticancer screen, dose series, 48 h
[1] = system: SF-268
[2] = system: HCT-15
[3] = system: A498
[4] = system: NCI-H522
[5] = system: Malme-3M
[6] = system: SF-539
[7] = system: SK-MEL-5
[8] = system: SNB-75
[9] = system: UACC-257
[10] = system: MOLT-4
[11] = system: EKVX
[12] = system: U-251
[13] = system: ACHN
[14] = system: SF-295
[15] = system: SK-MEL-28

SMILES	GI50 [1]	GI50 [2]	GI50 [3]	GI50 [4]	GI50 [5]	GI50 [6]	GI50 [7]	GI50 [8]	GI50 [9]	GI50 [10]	GI50 [11]	GI50 [12]	GI50 [13]	GI50 [14]	GI50 [15]
Cc1[nH]c2ccccc2c1C1Cc2ccccc2N1C(=O)/C=C\C(=O)O (configuration not stated)	36.3 µM (inactive)	> 100 µM	32.1 µM (inactive)	27.6 µM (inactive)	73.3 µM (inactive)	28.4 µM (inactive)	22.6 µM (inactive)	24.3 µM (inactive)	19 µM (inactive)	28.4 µM (inactive)	44.8 µM (inactive)	29.5 µM (inactive)	96.4 µM (inactive)	45.6 µM (inactive)	
CCc1ccccc1NC(=O)C(=O)C(C#N)c1c(Cl)cccc1Cl (configuration not stated)	> 100 µM (inactive)	> 100 µM		> 100 µM (inactive)	> 100 µM (inactive)	> 100 µM (inactive)		> 100 µM (inactive)	> 100 µM (inactive)	> 100 µM (inactive)	> 100 µM (inactive)	> 100 µM (inactive)	> 100 µM (inactive)	> 100 µM (inactive)	> 100 µM (inactive)
CCOC(=O)C1=C(C)N(NC(=O)Nc2ccccc2)C2(N)N(NC(=O)Nc3ccccc3)C(C)=C(C(=O)OCC)C12C(=O)OCC (configuration not stated)	24.8 µM (inactive)	> 100 µM	28.2 µM (inactive)	70 µM (inactive)	33 µM (inactive)	22.1 µM (inactive)	35.1 µM (inactive)	25.9 µM (inactive)	67.3 µM (inactive)		> 100 µM (inactive)	33 µM (inactive)	56.4 µM (inactive)	47.8 µM (inactive)	34.4 µM (inactive)
N#CCc1c(-c2ccccc2)n(S(=O)(=O)c2ccccc2)c2ccccc12	> 100 µM (inactive)	82.8 µM		> 10 µM (inactive)	> 100 µM (inactive)	> 100 µM (inactive)	> 100 µM (inactive)	6.78 µM (inactive)	> 100 µM (inactive)	41.3 µM (inactive)		> 100 µM (inactive)	> 100 µM (inactive)	25.1 µM (inactive)	> 100 µM (inactive)
O=C(O)C[C@H]1CCCCC12CCOC2=O (some centres not stated)	> 100 µM (inactive)			> 100 µM (inactive)		> 100 µM (inactive)	> 100 µM (inactive)	> 100 µM (inactive)	> 100 µM (inactive)	> 100 µM (inactive)	> 100 µM (inactive)	> 100 µM (inactive)	> 100 µM (inactive)	> 100 µM (inactive)	> 100 µM (inactive)
CC(=O)OCC(=O)[C@@]12OC(C)(C)O[C@@H]1C[C@H]1[C@@H]3CC(C=O)=C4C=C(OCCCl)CC[C@]4(C)[C@@]3(F)[C@@H](O)C[C@@]12C [FORMOCORTAL]	34.9 µM (inactive)	11.6 µM	21.9 µM (inactive)	20.3 µM (inactive)	23.6 µM (inactive)	17.6 µM (inactive)			23.4 µM (inactive)	5.87 µM (inactive)	10.3 µM (inactive)	14.2 µM (inactive)	> 100 µM (inactive)	5.42 µM (inactive)	19 µM (inactive)
CCN1C(=O)N(C)C(O)c2c1nc1ccccn1c2=O (configuration not stated)	25.4 µM (inactive)	32.2 µM	25.6 µM (inactive)	25.3 µM (inactive)	38.6 µM (inactive)	24.6 µM (inactive)		20.6 µM (inactive)	40.1 µM (inactive)	32.1 µM (inactive)	21.2 µM (inactive)	30.8 µM (inactive)	0.232 µM (active)	28 µM (inactive)	27.4 µM (inactive)
Cc1cc(Br)ccc1/N=N/c1c(C)nn(-c2ccccc2)c1-c1ccccc1	> 100 µM (inactive)	9.82 µM	> 100 µM (inactive)	51.6 µM (inactive)	> 100 µM (inactive)	92.3 µM (inactive)	29 µM (inactive)	> 100 µM (inactive)	49.3 µM (inactive)	> 100 µM (inactive)	> 100 µM (inactive)	27 µM (inactive)	54.7 µM (inactive)	75.2 µM (inactive)	> 100 µM (inactive)
CCCCCCCCCCCCCCCCc1c(O)nc(NN)nc1C(=O)OC	> 50 µM (inactive)	> 50 µM	> 50 µM (inactive)	> 50 µM (inactive)	> 50 µM (inactive)	> 50 µM (inactive)	> 50 µM (inactive)	> 50 µM (inactive)	> 50 µM (inactive)	> 50 µM (inactive)	> 50 µM (inactive)	> 50 µM (inactive)	> 50 µM (inactive)	> 50 µM (inactive)	> 50 µM (inactive)
O=C1CC(c2c(-c3ccccc3)[nH]c3ccccc23)C(=O)N1c1ccccc1 (configuration not stated)		61.8 µM	> 100 µM (inactive)		> 100 µM (inactive)	> 100 µM (inactive)	56.8 µM (inactive)	> 100 µM (inactive)	> 100 µM (inactive)	61.5 µM (inactive)	> 100 µM (inactive)	88.9 µM (inactive)	40.5 µM (inactive)	13.5 µM (inactive)	> 100 µM (inactive)
CCCn1c(SCC)c2ccccc2c1-c1nc(F)nc(F)n1	> 100 µM (inactive)	> 100 µM	> 100 µM (inactive)	> 100 µM (inactive)	> 100 µM (inactive)	> 100 µM (inactive)				> 100 µM (inactive)	> 100 µM (inactive)	> 100 µM (inactive)	> 100 µM (inactive)	> 100 µM (inactive)	> 100 µM (inactive)
NNC(=S)N/N=C/C(Cl)=C(\Cl)C(=O)O	> 100 µM (inactive)	> 100 µM	> 100 µM (inactive)	0.228 µM (active)	> 100 µM (inactive)	> 100 µM (inactive)	> 100 µM (inactive)	> 100 µM (inactive)	> 100 µM (inactive)	> 100 µM (inactive)	> 100 µM (inactive)	> 100 µM (inactive)	> 100 µM (inactive)	> 100 µM (inactive)	> 100 µM (inactive)
C/C(CC(=O)Nc1ccc(C)cc1)=N\NC(N)=S	> 100 µM (inactive)		> 100 µM (inactive)	94 µM (inactive)	> 100 µM (inactive)	> 100 µM (inactive)	> 100 µM (inactive)	> 100 µM (inactive)	> 100 µM (inactive)	> 100 µM (inactive)	> 100 µM (inactive)	> 100 µM (inactive)	79.4 µM (inactive)	> 100 µM (inactive)	> 100 µM (inactive)
COc1ccc(C(=O)C(C(=O)CCC(=O)Nc2cccc(Cl)c2)c2ccc(OC)cc2)cc1 (configuration not stated)	> 100 µM (inactive)	> 100 µM	> 100 µM (inactive)	> 100 µM (inactive)	> 100 µM (inactive)	> 100 µM (inactive)	> 100 µM (inactive)	61.2 µM (inactive)	> 100 µM (inactive)	> 100 µM (inactive)	> 100 µM (inactive)	> 100 µM (inactive)	> 100 µM (inactive)	> 100 µM (inactive)	> 100 µM (inactive)
Cc1ccc(SSCCCCS(=O)O)cc1	10 µM (inactive)	17.5 µM	19.1 µM (inactive)	12.5 µM (inactive)	19.2 µM (inactive)	15 µM (inactive)	11.5 µM (inactive)	14.1 µM (inactive)	18.5 µM (inactive)	> 100 µM (inactive)	18.5 µM (inactive)	10.6 µM (inactive)	19 µM (inactive)	26.4 µM (inactive)	17.1 µM (inactive)
CC(=O)OCCOCn1c2ccccc2c2c3c(c4c5ccccc5n(COCCOC(C)=O)c4c21)C(=O)N(Cc1ccccc1)C3=O	> 100 µM (inactive)	> 100 µM	> 100 µM (inactive)		> 100 µM (inactive)	> 100 µM (inactive)	> 100 µM (inactive)	76.7 µM (inactive)	> 100 µM (inactive)	> 100 µM (inactive)	> 100 µM (inactive)	> 100 µM (inactive)	> 100 µM (inactive)		> 100 µM (inactive)
O=C1c2c(c3c4ccccc4n4c3c3c2c2ccccc2n3C/C=C\C4)C(=O)N1Cc1ccccc1		> 100 µM	> 100 µM (inactive)	> 100 µM (inactive)	> 100 µM (inactive)	> 100 µM (inactive)	> 100 µM (inactive)	30.2 µM (inactive)	> 100 µM (inactive)	> 100 µM (inactive)	> 100 µM (inactive)	46.5 µM (inactive)	> 100 µM (inactive)	> 100 µM (inactive)	> 100 µM (inactive)
CCOC(=O)C1=C(C)N2CCOC2(C)C(C(=O)OC)C1c1cccc(Cl)c1 (configuration not stated)	> 100 µM (inactive)	> 100 µM	> 100 µM (inactive)	88.7 µM (inactive)	> 100 µM (inactive)	> 100 µM (inactive)	> 100 µM (inactive)	> 100 µM (inactive)	> 100 µM (inactive)		> 100 µM (inactive)	> 100 µM (inactive)	> 100 µM (inactive)	> 100 µM (inactive)	> 100 µM (inactive)
[N-]=[N+]=NC1(Cc2ccccc2)C(=O)c2cccc3c2N(CCC3)C1=O (configuration not stated)	> 100 µM (inactive)	> 100 µM		> 100 µM (inactive)	> 100 µM (inactive)	> 100 µM (inactive)	> 100 µM (inactive)	> 100 µM (inactive)	> 100 µM (inactive)	> 100 µM (inactive)		> 100 µM (inactive)	> 100 µM (inactive)	> 100 µM (inactive)	> 100 µM (inactive)
O=C1C2C3C=C4c5ccccc5N(c5ccccc5)C4(C2C(=O)N1c1ccccc1)C1C(=O)N(c2ccccc2)C(=O)C31 (configuration not stated)	> 100 µM (inactive)	> 100 µM	2.34 µM (inactive)		7.67 µM (inactive)			65.8 µM (inactive)	42.8 µM (inactive)	3.3 µM (inactive)		> 100 µM (inactive)	> 100 µM (inactive)	> 100 µM (inactive)	8.17 µM (inactive)
